Tested on: GA-primed murine splenocytes
Test: Functional gene expression analysis (Ingenuity Pathways Analysis: biological functions, canonical pathways)
Set-up: species or system mouse
Conditions: vs. Medium
Protocol: To identify the leading biological mechanisms associated with genes induced in splenocytes by glatiramoids, gene functional annotation, enrichment, and pathway analyses were performed by Ingenuity Pathways Analysis (IPA) Suite (www.ingenuity.com). The program integrates data from various experimental platforms and primary literature sources to provide insight into molecular interactions, cellular phenotypes, and disease processes, and then predicts downstream biological effects of gene transcription changes. IPA web software was also used to reconstruct regulatory genes and transcriptional factors functional networks. A significance score (using the right-tailed Fisher's exact test and expressed as a p value) for each process is calculated as the number of gene transcripts that participate in a network or pathway relative to the total number of these genes in all functional/pathway annotations stored in the IPA database. All p values were applied for multiple testing corrections using Benjamini-Hochberg FDR method with a cut off at p =0.05.

In the case of glatiramer acetate [GA], the “Response, Activation of T lymphocytes” value was “Upregulated”, the “Response, Activation of antigen presenting cells” value was “Upregulated” and the “Response, Activation of lymphocytes” value was “Upregulated”. The “Response, Activation of mononuclear leukocytes” value was “Upregulated”, the “Response, Activation of phagocytes” value was “Upregulated” and the “Response, Development of hematopoietic progenitor cells” value was “Down-regulated”. The “Response, Differentiation of effector T lymphocytes” value was “Upregulated”, the “Response, Differentiation of naive lymphocytes” value was “No change” and the “Response, Expansion of lymphocytes” value was “No change”. The “Response, Expansion of mononuclear leukocytes” value was “No change”, the “Response, Immune response of antigen presenting cells” value was “Upregulated” and the “Response, Proliferation of B lymphocytes” value was “Upregulated”. The “Response, Proliferation of T lymphocytes” value was “No change”, the “Response, Proliferation of hematopoietic cell lines” value was “Upregulated” and the “Response, Proliferation of immune cells” value was “Upregulated”. The “Response, Proliferation of lymphocytes” value was “Upregulated”, the “Response, Quantity of cytotoxic T cells” value was “Down-regulated” and the “Response, Stimulation of antigen presenting cells” value was “Upregulated”. For the same substance, the “Response, Stimulation of macrophages” value was “Upregulated” and the “Response, Suppression of T lymphocytes” value was “Upregulated”.

— patent publication US20140193827A1 (TEVA PHARMACEUTICAL INDUSTRIES, LTD., priority 2013, published 2014)
